Experimental data as given in paper PMC10872270 (Cell reports, 2023).

Key:
[1] = system: AR-target genes FKBP5, STEAP4, and TMPRSS2; assay: AR-target gene expression by real-time PCR in MDA-MB-453 cells; format: cell-based; details: 16–20 hours
[2] = system: UT-1355 PDX; assay: UT-1355 TNBC PDX orthotopic xenograft; format: in vivo; details: female NSG mice; expresses AR-FL and AR-V7
[3] = system: MDA-MB-453 tumors; assay: RNA-seq of MDA-MB-453 xenograft tumors; format: in vivo, mice; details: MDA-MB-453 xenograft tumors vs vehicle
[4] = system: MDA-MB-453 xenograft; details: female mice supplemented with DHT; cited from earlier work
[5] = system: patients expressing AR-V7; details: clinical trial; alone or in combination with PI3K inhibitor taselisib; cited from earlier work
[6] = system: STAT1 phosphorylation; assay: Interferon α-induced STAT1 phosphorylation in MDA-MB-453 cells; format: cell-based; details: 3 μM pretreated for 24 hours, interferon α 30 minutes
[7] = system: MDA-MB-453 cells; assay: SRB proliferation assay in growth medium; format: cell-based; details: parental MDA-MB-453 cells, seven days
[8] = system: MDA-MB-453-AR-V7 cells; assay: SRB proliferation assay in growth medium; format: cell-based; details: seven days
[9] = system: FKBP5; assay: R1881-induced FKBP5 expression in MDA-MB-453 cells; details: 0.1 nM R1881, 3 μM, 24 hours
[10] = biological target: T1, AR (Homo sapiens, UniProt P10275); details: HEK-293 cells
T1 sequence (P10275 1-920): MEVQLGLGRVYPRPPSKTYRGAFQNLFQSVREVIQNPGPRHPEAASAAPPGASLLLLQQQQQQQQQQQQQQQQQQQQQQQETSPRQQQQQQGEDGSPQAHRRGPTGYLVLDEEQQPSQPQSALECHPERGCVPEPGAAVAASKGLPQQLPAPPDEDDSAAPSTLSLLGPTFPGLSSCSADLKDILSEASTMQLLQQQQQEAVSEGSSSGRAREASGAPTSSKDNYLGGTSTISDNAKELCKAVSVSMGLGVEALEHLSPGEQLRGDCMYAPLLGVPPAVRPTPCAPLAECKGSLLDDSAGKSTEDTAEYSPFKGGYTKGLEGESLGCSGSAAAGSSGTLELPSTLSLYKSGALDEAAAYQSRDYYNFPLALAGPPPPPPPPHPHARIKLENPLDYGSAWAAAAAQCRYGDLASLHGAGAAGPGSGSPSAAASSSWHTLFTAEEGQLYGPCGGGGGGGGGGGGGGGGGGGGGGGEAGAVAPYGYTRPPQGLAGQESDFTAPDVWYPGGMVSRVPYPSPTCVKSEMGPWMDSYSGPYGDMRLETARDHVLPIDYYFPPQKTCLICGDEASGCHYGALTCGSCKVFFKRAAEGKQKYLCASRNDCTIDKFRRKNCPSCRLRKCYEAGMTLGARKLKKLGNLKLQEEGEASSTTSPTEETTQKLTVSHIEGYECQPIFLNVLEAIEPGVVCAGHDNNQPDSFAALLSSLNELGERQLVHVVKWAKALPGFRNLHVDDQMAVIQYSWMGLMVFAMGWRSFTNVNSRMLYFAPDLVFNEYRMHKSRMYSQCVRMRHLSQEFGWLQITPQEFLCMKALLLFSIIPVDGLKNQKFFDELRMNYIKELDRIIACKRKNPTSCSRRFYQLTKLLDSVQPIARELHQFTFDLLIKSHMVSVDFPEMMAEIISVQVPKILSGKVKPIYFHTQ

| R1881-dependent AR transactivation in the absence of STAT1 [10] | STAT1-dependent increase in AR transactivation ([10]; 0.1 μg STAT1) | SMILES | R1881-stimulated expression of FKBP5 [1] | R1881-stimulated expression of STEAP4 [1] | R1881-stimulated expression of TMPRSS2 [1] | growth of UT-1355 PDX [2] | differentially expressed genes in treated tumors [3] | MDA-MB-453 xenograft growth [4] | effect in patients expressing AR-V7 [5] | interferon-α-induced phosphorylation of STAT1 [6] | cell proliferation [7] | cell proliferation [8] | R1881-induced expression of FKBP5 [9] |
| --- | --- | --- | --- | --- | --- | --- | --- | --- | --- | --- | --- | --- | --- |
| – | – | CNC(=O)c1ccc(N2C(=S)N(c3ccc(C#N)c(C(F)(F)F)c3)C(=O)C2(C)C)cc1F [enzalutamide] | inhibited | inhibited | inhibited | modestly effective | eight | inhibits | failed to have an effect | – | – | – | – |
| no effect | inhibited | N#CC[C@H](C1CCCC1)n1cc(-c2ncnc3[nH]ccc23)cn1 [ruxolitinib] | – | – | – | – | – | – | – | completely inhibited | comparable inhibition | comparable inhibition | completely inhibited |
